Where a name gives a salt, the structure may show the parent alone.

The target in this test is T1, human NHE3 (Homo sapiens, UniProt P48764).
T1 sequence (P48764 26-834): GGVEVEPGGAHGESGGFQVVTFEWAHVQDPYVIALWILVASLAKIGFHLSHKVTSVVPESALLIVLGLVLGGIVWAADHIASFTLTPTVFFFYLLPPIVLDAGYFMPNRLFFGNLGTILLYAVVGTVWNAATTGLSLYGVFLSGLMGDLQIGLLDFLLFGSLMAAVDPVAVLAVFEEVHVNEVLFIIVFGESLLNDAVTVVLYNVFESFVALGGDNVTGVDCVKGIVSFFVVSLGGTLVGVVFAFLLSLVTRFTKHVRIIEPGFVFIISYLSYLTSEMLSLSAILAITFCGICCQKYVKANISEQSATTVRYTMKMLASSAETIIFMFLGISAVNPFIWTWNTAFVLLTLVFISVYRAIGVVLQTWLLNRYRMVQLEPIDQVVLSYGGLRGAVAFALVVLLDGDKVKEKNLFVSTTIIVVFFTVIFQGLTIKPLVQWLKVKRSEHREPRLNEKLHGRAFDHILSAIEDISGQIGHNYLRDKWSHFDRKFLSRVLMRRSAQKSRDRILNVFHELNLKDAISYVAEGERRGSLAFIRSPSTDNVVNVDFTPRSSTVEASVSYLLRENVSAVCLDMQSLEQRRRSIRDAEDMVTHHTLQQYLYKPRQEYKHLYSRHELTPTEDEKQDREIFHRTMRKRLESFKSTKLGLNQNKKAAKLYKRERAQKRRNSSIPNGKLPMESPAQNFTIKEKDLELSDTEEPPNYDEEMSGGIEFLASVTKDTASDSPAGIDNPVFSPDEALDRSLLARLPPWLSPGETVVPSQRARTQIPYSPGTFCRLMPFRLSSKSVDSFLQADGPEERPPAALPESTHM
As to the kind of experiment: NHE3 inhibition test (recovery of intracellular pH in cell line stably expressing human NHE3). It is filed as cell-based. Conditions: OK cells deficient in endogenous NHE stably expressing human NHE3; BCECF fluorescence, initial rate of pH recovery; read-out: human NHE3 inhibitory activity IC50. As to the method: (1) Preparation of Cell Line Deficient in Endogenous NHE
The cell line deficient in endogenous NHE was prepared according to the method of Jacques Pouyssegur et al. (Proc. Natl. Acad. Sci. USA. 1984, Vol. 81, 4833-4837) using opossum kidney (OK) cells (ATCC).
(2) Preparation of Expression Plasmid and Cell Line Stably Expressing Human NHE3
The expression plasmid was constructed by inserting a human NHE3 (SLC9A3, Accession No. NM_004174) cDNA sequence (GeneCopoeia, Inc.) into a pcDNA3.2/V5-DEST vector (Life Technologies Corp.).
The OK cells deficient in endogenous NHE were transfected with the constructed human NHE3 expression plasmid to prepare stably expressing cells. The transfection was carried out by electroporation using a Nucleofector 2b device (Lonza Group Ltd.). A stably expressing cell line was selected in medium supplemented with 500 μg/mL Geneticin (Life Technologies Corp.) and isolated.
NHE3 activity measurement method using cell: The activity was determined by using the NHE3-mediated recovery of intracellular pH occurring after intracellular acidification, as an index. The intracellular pH was measured by a partial modification of the pH-sensitive fluorescent indicator method reported by Tsien et al. (Proc. Natl. Acad. Sci. USA., 1984, 81, 7436-7440).
The cell line stably expressing human NHE3 was inoculated on a poly-D-lysine-coated 96-well plate (Greiner Bio-one) and cultured overnight. […] Then, Hank's balanced salt buffer solution containing 0.25 μM BCECF-AM (Dojindo Laboratories) was added to the cells, which were then incubated at 37° C. for 30 minutes. […] The cells thus incubated in the NH4Cl buffer solution were washed with NH4Cl-free buffer solution (133.8 mM choline chloride, […], 5 mM glucose, 4.7 mM KCl, 1.25 mM CaCl2, 1.25 mM MgCl2, 0.97 mM K2HPO4, 0.23 mM KH2PO4, pH 7.4) to decrease the intracellular pH. After the washing step, 70 μL of a test compound solution prepared with the NH4Cl-free buffer solution was added to the cells, and 70 iμL of sodium ion-containing buffer solution (133.8 mM NaCl, 10 mM HEPES, 5 mM glucose, 4.7 mM KCl, 1.25 mM CaCl2, 1.25 mM MgCl2, 0.97 mM Na2HPO4, 0.23 mM NaH2PO4, pH 7.4) was added thereto in a measurement system FDSS6000 (Hamamatsu Photonics K.K.) to start the recovery of pH. The recovery of intracellular pH was monitored using BCECF fluorescence (excitation wavelength: 480 nm, fluorescence wavelength: 520 to 560 nm), and the initial rate of the pH recovery was plotted. The recovery of pH without test compound was defined as the maximum recovery, and the test compound concentration necessary to inhibit 50% of the maximum recovery was calculated as an IC50 value.

Consider `CN1Cc2c(Cl)cc(Cl)cc2[C@H](c2cccc(-c3cn(CCOCCOCCNC(=O)CCC(=O)NCCOCCOCCn4cc(-c5cccc([C@@H]6CN(C)Cc7c(Cl)cc(Cl)cc76)c5)nn4)nn3)c2)C1` [Example 6-3, N,N′-Bis(2-{2-[2-(4-{3-[(4S)-6,8-dichloro-2-methyl-1,2,3,4-tetrahydroisoquinolin-4-yl]phenyl}-1H-1,2,3-triazol-1-yl)ethoxy]ethoxy}ethyl)butanediamide hydrochloride], for which the IC50 is 301 nM.

`CN1Cc2c(Cl)cc(Cl)cc2[C@H](c2cccc(-c3cccnn3)c2)C1` [Example 1-20, (4S)-6,8-Dichloro-2-methyl-4-[3-(pyridazin-3-yl)phenyl]-1,2,3,4-tetrahydroisoquinoline hydrochloride]: the IC50 was determined as 208 nM.

In the case of `CN1Cc2c(Cl)cc(Cl)cc2[C@H](c2cccc(-c3cncc(NCCOCCOCCNC(=O)NCCCCNC(=O)NCCOCCOCCNc4cncc(-c5cccc([C@@H]6CN(C)Cc7c(Cl)cc(Cl)cc76)c5)n4)n3)c2)C1` [Example 7-20, 1,1′-Butane-1,4-diylbis{3-[2-(2-{2-[(6-{3-[(4S)-6,8-dichloro-2-methyl-1,2,3,4-tetrahydroisoquinolin-4-yl]phenyl}pyrazin-2-yl)amino]ethoxy}ethoxy)ethyl]urea}pentahydrochloride], the half-maximal inhibitory concentration (IC50) came to 7.5 nM.

Regarding `CN1Cc2c(Cl)cc(Cl)cc2[C@H](c2cccc(-c3cc(OCCOCCOCCOCCNC(=O)CCC(=O)NCCOCCOCCOCCOc4cc(-c5cccc([C@@H]6CN(C)Cc7c(Cl)cc(Cl)cc76)c5)ncn4)ncn3)c2)C1` [Example 8-22, N,N′-Bis{2-[2-(2-{2-[(6-{3-[(4S)-6,8-dichloro-2-methyl-1,2,3,4-tetrahydroisoquinolin-4-yl]phenyl}pyrimidin-4-yl)oxy]ethoxy}ethoxy)ethoxy]ethyl}butanediamide hydrochloride], the IC50 amounted to 10.5 nM.

On to `CN1Cc2c(Cl)cc(Cl)cc2C(c2cccc(-c3ccnc(NCCOCCOCCNC(=O)Nc4ccc(NC(=O)NCCOCCOCCNc5cc(-c6cccc(C7CN(C)Cc8c(Cl)cc(Cl)cc87)c6)ccn5)cc4)c3)c2)C1` (centres unmarked) [Example 7-41, 1,1′-Benzene-1,4-diylbis[3-(2-{2-[2-({4-[3-(6,8-dichloro-2-methyl-1,2,3,4-tetrahydroisoquinolin-4-yl)phenyl]pyridin-2-yl}amino)ethoxy]ethoxy}ethyl)urea]trifluoroacetate], for which the half-inhibitory concentration (IC50) is 5520 nM.

In the case of `CN1Cc2c(Cl)cc(Cl)cc2[C@H](c2cccc(-c3cn(CCOCCOCCOCCNC(=O)NCCCNC(=O)NCCOCCOCCOCCn4cc(-c5cccc([C@@H]6CN(C)Cc7c(Cl)cc(Cl)cc76)c5)nn4)nn3)c2)C1` [Example 7-35, 1,1′-Propane-1,3-diylbis {3-[2-(2-{2-[2-(4-{3-[(4S)-6,8-dichloro-2-methyl-1,2,3,4-tetrahydroisoquinolin-4-yl]phenyl}-1H-1,2,3-triazol-1-yl)ethoxy]ethoxy}ethoxy)ethyl]urea}hydrochloride], the IC50 was 4.4 nM.

For `CN1Cc2c(Cl)cc(Cl)cc2[C@H](c2cccc(-c3cnnc(NCCOCCOCCOCCNC(=O)NCCCCNC(=O)NCCOCCOCCOCCNc4cc(-c5cccc([C@@H]6CN(C)Cc7c(Cl)cc(Cl)cc76)c5)cnn4)c3)c2)C1` [Example 7-32, 1,1′-Butane-1,4-diylbis(3-{2-[2-(2-{2-[(5-{3-[(4S)-6,8-dichloro-2-methyl-1,2,3,4-tetrahydroisoquinolin-4-yl]phenyl}pyridazin-3-yl)amino]ethoxy}ethoxy)ethoxy]ethyl}urea) tetrahydrochloride], the IC50 is 18.1 nM.

For `CCc1cc(-c2cccc([C@@H]3CN(C)Cc4c(Cl)cc(Cl)cc43)c2)ccn1` [Example 1-12, (4S)-6,8-Dichloro-4-[3-(2-ethylpyridin-4-yl)phenyl]-2-methyl-1,2,3,4-tetrahydroisoquinoline trifluoroacetate], the half-inhibitory concentration (IC50) was 650 nM.

In the case of `CN1Cc2c(Cl)cc(Cl)cc2[C@H](c2cccc(-c3cn(CCOCCOCCOCCNC(=O)NCCOCCOCCOCCn4cc(-c5cccc([C@@H]6CN(C)Cc7c(Cl)cc(Cl)cc76)c5)nn4)nn3)c2)C1` [Example 7-36, 1,3-Bis[2-(2-{2-[2-(4-{3-[(4S)-6,8-dichloro-2-methyl-1,2,3,4-tetrahydroisoquinolin-4-yl]phenyl}-1H-1,2,3-triazol-1-yl)ethoxy]ethoxy}ethoxy)ethyl]urea hydrochloride], the IC50 was found to be 21.4 nM.

As to `CN1Cc2c(Cl)cc(Cl)cc2[C@@H](c2cccc(-c3cc(NCCOCCOCCOCCNC(=O)COCC(=O)NCCOCCOCCOCCNc4cc(-c5cccc([C@@H]6CN(C)Cc7c(Cl)cc(Cl)cc76)c5)ncn4)ncn3)c2)C1` [Example 8-11, 1-[(6-{3-[(4R)-6,8-Dichloro-2-methyl-1,2,3,4-tetrahydroisoquinolin-4-yl]phenyl}pyrimidin-4-yl)amino]-N-{2-[2-(2-{2-[(6-{3-[(4S)-6,8-dichloro-2-methyl-1,2,3,4-tetrahydroisoquinolin-4-yl]phenyl}pyrimidin-4-yl)amino]ethoxy}ethoxy)ethoxy]ethyl}-13-oxo-3,6,9,15-tetraoxa-12-azaheptadecan-17-amide hydrochloride], the half-inhibitory concentration (IC50) was found to be 7.5 nM.

As for `CN1Cc2c(Cl)cc(Cl)cc2[C@H](c2cccc(-c3ccc(NCCOCCOCCNC(=O)[C@H](O)[C@@H](O)C(=O)NCCOCCOCCNc4ccc(-c5cccc([C@@H]6CN(C)Cc7c(Cl)cc(Cl)cc76)c5)cn4)nc3)c2)C1` [Example 8-2, (2R,3R)-N,N′-Bis[2-(2-{2-[(5-{3-[(4S)-6,8-dichloro-2-methyl-1,2,3,4-tetrahydroisoquinolin-4-yl]phenyl}pyridin-2-yl)amino]ethoxy}ethoxy)ethyl]-2,3-dihydroxybutanediamide hydrochloride], the 50% inhibitory concentration (IC50) was 10.7 nM.

As for `CN1Cc2c(Cl)cc(Cl)cc2[C@H](c2cccc(-c3nnc(CCOCCOCCOCCNC(=O)[C@H](O)[C@@H](O)C(=O)NCCOCCOCCOCCc4nnc(-c5cccc([C@@H]6CN(C)Cc7c(Cl)cc(Cl)cc76)c5)[nH]4)[nH]3)c2)C1` [Example 8-15, (2R,3R)-N,N′-Bis[2-(2-{2-[2-(5-{3-[(4S)-6,8-dichloro-2-methyl-1,2,3,4-tetrahydroisoquinolin-4-yl]phenyl}-4H-1,2,4-triazol-3-yl)ethoxy]ethoxy}ethoxy)ethyl]-2,3-dihydroxybutanediamide diformate], the concentration for half-maximal inhibition (IC50) was found to be 1.9 nM.

For the compound `CN1Cc2c(Cl)cc(Cl)cc2[C@H](c2cccc(-c3ncco3)c2)C1` [Example 1-22, (4S)-6,8-Dichloro-2-methyl-4-[3-(1,3-oxazol-2-yl)phenyl]-1,2,3,4-tetrahydroisoquinoline hydrochloride], the IC50 stood at 306 nM.

On to `CN1Cc2c(Cl)cc(Cl)cc2[C@H](c2cccc(-c3cc(OCCOCCOCCNC(=O)Nc4ccc(NC(=O)NCCOCCOCCOc5cc(-c6cccc([C@@H]7CN(C)Cc8c(Cl)cc(Cl)cc87)c6)ncn5)cc4)ncn3)c2)C1` [Example 7-11, 1,1′-Benzene-1,4-diylbis {3-[2-(2-(2-{2-[(6-{3-[(4S)-6,8-dichloro-2-methyl-1,2,3,4-tetrahydroisoquinolin-4-yl]phenyl}pyrimidin-4-yl)oxy]ethoxy}ethoxy)ethyl]urea} trifluoroacetate], for which the half-inhibitory concentration (IC50) was 33.5 nM.

The record behind these values is patent US9932331B2, “Phenyl tetrahydroisoquinoline compound substituted with heteroaryl” (TAISHO PHARMACEUTICAL CO., LTD, priority 2014, dated 2018).
